# From patent US20170274001A1, “Compositions and Methods for Increasing Red Blood Cells” (Yale University, priority 2014, published 2017)
# Entries after “also recorded” stand apart in the source; their conditions may differ.
# What was measured:
# scavenger receptor B1 = biological target: T1, scavenger receptor B1 (Mus musculus, UniProt Q61009); assay: Clearance of infused human RBCs from peripheral blood of RGSKI mice after blocking scavenger receptor B1 (FIG. 4); format: in vivo; details: BLT-1 80 mg/kg body weight one hour before human RBC infusion, control DMSO
# T1 construct: endogenous in cells; host or cells: RGSKI mice (whole animal, in vivo)
# T1 sequence (Q61009 1-509): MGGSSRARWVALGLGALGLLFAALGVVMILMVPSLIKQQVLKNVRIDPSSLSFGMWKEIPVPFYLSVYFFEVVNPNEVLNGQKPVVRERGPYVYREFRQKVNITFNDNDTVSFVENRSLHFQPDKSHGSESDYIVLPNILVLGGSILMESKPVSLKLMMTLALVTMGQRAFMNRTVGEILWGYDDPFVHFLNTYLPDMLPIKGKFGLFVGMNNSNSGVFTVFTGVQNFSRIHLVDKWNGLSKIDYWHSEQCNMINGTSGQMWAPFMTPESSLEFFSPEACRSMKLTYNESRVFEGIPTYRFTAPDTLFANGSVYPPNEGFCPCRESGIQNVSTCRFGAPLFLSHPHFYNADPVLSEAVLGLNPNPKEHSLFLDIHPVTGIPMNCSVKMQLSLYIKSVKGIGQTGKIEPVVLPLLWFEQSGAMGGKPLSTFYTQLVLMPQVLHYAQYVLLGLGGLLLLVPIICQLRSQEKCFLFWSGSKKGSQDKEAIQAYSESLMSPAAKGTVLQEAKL
# Procedure: RGSKI mice were treated with scavenger receptor B1 named BLT-1 (80 mg/kg body weight). One hour after treatment, mice were infused with human RBCs and peripheral blood was collected at indicated time points. Control: DMSO.
# [1] = Navab et al., 2006; cited from earlier work
# human RBCs = assay: Clearance of infused human RBCs from peripheral blood of RGSKI mice after blocking macrophage receptors (FIG. 3); format: in vivo; details: RGSKI mice treated one hour before human RBC infusion, D-4F 10 mg/mouse, control PBS, peripheral blood by FACS
# Procedure: D-4F blocks several scavenger receptors. RGSKI mice were treated with different antibodies or inhibitors to block various macrophage receptors. One hour after treatment, mice were infused with human RBCs and peripheral blood was collected at indicated time points. Anti-Dectin: 50 ug/mouse; Anti-CD169: 50 ug/mouse; Anti-CD169 clone 3D6: 100 ug/mice; Anti-Mannose receptor: 50 ug/mouse; D-4F: 10 mg/mouse; Asialofetuin: 10 mg/mouse; Control: PBS.
# First, an experiment was conducted to examine the clearance of human red blood cells in mouse peripheral blood. Human and mouse red blood cells were pre-labeled with CFSE or violet dye, respectively, and then were transfused into RGSKI mice by retro-orbital injection. Peripheral blood was collected 5 minutes after blood infusion and the frequency of infused mouse or human RBCs was determined by FACS. It was observed that the frequency of infused human RBCs decreased more rapidly than mouse RBCs (FIG. 1B).
# Experiments were then performed to evaluate the role of the scavenger receptor in RBC clearance. D-4F is an apolipoprotein A-I mimetic peptide and a general scavenger receptor inhibitor. D-4F is an 18 D-amino acid peptide (Ac-D-W-L-K-A-F-Y-D-K-V-A-E-K-L-K-E-A-F—NH2; SEQ ID NO: 2). […] Other pathways which might involve in the destruction of human RBCs in the periphery were also tested.
Compound,percent of remaining RBCs in the periphery after human RBC infusion (scavenger receptor B1),"cholesterol efflux, inflammation and atherosclerosis [1]",protection of infused human RBCs in the periphery (human RBCs),protection of infused human RBCs in the periphery (human RBCs; listed as D4-F)
"CCCCCCC1CCCC1=NNC(N)=S (stereo not shown) [BLT-1, 2-Hexyl-1-cyclopentanone thiosemicarbazone]",can protect infused human RBCs in the mouse system; also recorded: increases the percent of remaining RBCs in the periphery,,,
Ac-D-W-L-K-A-F-Y-D-K-V-A-E-K-L-K-E-A-F—NH2 (DWLKAFYDKVAEKLKEAF; HELM PEPTIDE1{[ac].[dD].[dW].[dL].[dK].[dA].[dF].[dY].[dD].[dK].[dV].[dA].[dE].[dK].[dL].[dK].[dE].[dA].[dF].[am]}$$$$V2.0; SMILES CC(=O)N[C@H](CC(=O)O)C(=O)N[C@H](Cc1c[nH]c2ccccc12)C(=O)N[C@H](CC(C)C)C(=O)N[C@H](CCCCN)C(=O)N[C@H](C)C(=O)N[C@H](Cc1ccccc1)C(=O)N[C@H](Cc1ccc(O)cc1)C(=O)N[C@H](CC(=O)O)C(=O)N[C@H](CCCCN)C(=O)N[C@@H](C(=O)N[C@H](C)C(=O)N[C@H](CCC(=O)O)C(=O)N[C@H](CCCCN)C(=O)N[C@H](CC(C)C)C(=O)N[C@H](CCCCN)C(=O)N[C@H](CCC(=O)O)C(=O)N[C@H](C)C(=O)N[C@H](Cc1ccccc1)C(N)=O)C(C)C) [D-4F],,increase cholesterol efflux and reduce inflammation and atherosclerosis,blocks in vivo destruction of human RBCs,protected infused human RBCs in the periphery
